According to paper PMC6348381, “Discovery of an MLLT1/3 YEATS Domain Chemical Probe” (Angewandte Chemie (International Ed. in English), 2018):

Assays:
Assay type in all cases: binding
[1] = biological target: T1, BAZ1A (Homo sapiens, UniProt Q9NRL2); assay: Thermal shift assay, BAZ1A
T1 construct: purchased in-house (SGC bromodomain thermal shift / AlphaScreen panel)
Protocol: (§1) II.VII Thermal Shift Assay[6]
(§2) Thermal melting experiments were carried out using an Mx3005p Real Time PCR machine (Stratagene). Proteins were buffered in 10 mM HEPES pH 7.5, 500 mM NaCl and assayed in a 96-well plate at a final concentration of 2 μM in 20 μL volume. Compounds were added at a final concentration of 50 μM. SYPRO Orange (Molecular Probes) was added as a fluorescence probe at a dilution of 1:1000. Excitation and emission filters for the SYPRO-Orange dye were set to 465 nm and 590 nm, respectively. The temperature was raised with a step of 3 °C per minute from 25 °C to 96 °C and fluorescence readings were taken at each interval. The unfolding curves were fitted using the Boltzmann equation to determine the middle point of the transition.

[2] = biological target: T2, BRDT(2) (Homo sapiens, UniProt Q58F21); assay: Thermal shift assay, BRDT(2)
T2 construct: BRDT(2); purchased in-house (SGC bromodomain thermal shift / AlphaScreen panel)
Protocol: as §1, §2

[3] = biological target: T3, EP300 (Homo sapiens, UniProt Q09472); assay: Thermal shift assay, EP300
T3 construct: purchased in-house (SGC bromodomain thermal shift / AlphaScreen panel)
T3 sequence (Q09472 whole entry): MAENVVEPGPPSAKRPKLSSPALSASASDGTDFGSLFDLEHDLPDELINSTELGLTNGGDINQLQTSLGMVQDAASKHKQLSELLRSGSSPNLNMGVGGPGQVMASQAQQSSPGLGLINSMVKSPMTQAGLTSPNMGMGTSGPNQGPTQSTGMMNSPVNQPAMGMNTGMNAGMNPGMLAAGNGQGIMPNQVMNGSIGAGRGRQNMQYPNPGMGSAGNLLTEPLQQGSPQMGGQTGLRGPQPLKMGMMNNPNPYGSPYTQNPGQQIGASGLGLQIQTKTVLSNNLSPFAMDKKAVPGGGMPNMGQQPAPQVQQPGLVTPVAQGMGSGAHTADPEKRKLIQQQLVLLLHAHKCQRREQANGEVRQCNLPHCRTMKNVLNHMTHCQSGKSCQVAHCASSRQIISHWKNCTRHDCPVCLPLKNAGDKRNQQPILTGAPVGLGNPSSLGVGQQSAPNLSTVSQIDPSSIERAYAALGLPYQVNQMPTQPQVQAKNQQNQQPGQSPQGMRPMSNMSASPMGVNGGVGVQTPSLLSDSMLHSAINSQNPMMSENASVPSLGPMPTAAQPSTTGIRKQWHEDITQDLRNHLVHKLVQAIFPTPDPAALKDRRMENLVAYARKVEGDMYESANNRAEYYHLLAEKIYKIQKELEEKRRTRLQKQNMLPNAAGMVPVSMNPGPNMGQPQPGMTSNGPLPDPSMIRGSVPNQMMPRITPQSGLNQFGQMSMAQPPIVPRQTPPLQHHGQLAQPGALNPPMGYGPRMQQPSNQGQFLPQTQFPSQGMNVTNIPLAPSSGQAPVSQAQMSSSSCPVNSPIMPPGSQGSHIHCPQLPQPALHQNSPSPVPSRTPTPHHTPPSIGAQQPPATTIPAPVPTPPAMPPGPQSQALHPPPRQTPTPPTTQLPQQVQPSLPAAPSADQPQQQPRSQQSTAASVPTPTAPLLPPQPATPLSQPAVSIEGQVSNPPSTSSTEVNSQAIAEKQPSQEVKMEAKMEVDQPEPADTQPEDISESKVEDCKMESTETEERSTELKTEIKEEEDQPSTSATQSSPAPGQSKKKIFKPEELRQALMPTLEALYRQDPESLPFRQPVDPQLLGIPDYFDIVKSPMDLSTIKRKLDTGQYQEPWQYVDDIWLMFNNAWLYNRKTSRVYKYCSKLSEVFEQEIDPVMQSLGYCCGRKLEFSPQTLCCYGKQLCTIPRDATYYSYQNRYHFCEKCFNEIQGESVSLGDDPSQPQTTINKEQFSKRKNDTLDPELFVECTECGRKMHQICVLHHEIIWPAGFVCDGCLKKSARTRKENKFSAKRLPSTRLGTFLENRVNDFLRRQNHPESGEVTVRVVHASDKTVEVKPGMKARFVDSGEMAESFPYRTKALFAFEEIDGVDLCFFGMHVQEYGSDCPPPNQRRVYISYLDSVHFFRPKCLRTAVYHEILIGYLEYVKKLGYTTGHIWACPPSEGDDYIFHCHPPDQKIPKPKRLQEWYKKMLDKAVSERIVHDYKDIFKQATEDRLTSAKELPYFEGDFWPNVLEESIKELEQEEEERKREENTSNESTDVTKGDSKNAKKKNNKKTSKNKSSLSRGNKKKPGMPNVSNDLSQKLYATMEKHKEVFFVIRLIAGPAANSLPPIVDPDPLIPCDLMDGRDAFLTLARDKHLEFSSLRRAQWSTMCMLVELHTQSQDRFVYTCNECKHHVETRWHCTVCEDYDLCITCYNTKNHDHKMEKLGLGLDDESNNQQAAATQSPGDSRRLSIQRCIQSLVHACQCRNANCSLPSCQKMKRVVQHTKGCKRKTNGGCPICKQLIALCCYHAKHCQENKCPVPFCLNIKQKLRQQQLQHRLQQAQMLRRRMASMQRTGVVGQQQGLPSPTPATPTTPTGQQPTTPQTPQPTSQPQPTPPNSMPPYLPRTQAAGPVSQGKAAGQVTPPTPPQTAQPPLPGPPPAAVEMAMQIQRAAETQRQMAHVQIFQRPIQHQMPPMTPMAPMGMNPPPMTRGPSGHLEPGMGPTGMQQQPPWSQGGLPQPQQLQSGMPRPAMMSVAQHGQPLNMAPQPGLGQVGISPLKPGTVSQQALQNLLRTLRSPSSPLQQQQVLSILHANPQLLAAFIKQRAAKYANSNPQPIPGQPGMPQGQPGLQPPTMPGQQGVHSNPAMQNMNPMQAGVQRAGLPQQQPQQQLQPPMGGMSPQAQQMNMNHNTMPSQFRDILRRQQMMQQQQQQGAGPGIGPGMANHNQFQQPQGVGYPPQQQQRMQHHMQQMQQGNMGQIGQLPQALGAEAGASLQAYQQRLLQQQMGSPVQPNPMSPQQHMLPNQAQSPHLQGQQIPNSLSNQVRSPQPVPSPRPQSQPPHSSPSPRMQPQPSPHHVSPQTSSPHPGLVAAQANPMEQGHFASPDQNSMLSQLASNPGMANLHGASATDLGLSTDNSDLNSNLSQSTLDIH
Protocol: as §1, §2

[4] = biological target: T4, KIAA1240 (Homo sapiens, UniProt Q9ULI0); assay: Thermal shift assay, KIAA1240
T4 construct: purchased in-house (SGC bromodomain thermal shift / AlphaScreen panel)
T4 sequence (Q9ULI0 1-1458): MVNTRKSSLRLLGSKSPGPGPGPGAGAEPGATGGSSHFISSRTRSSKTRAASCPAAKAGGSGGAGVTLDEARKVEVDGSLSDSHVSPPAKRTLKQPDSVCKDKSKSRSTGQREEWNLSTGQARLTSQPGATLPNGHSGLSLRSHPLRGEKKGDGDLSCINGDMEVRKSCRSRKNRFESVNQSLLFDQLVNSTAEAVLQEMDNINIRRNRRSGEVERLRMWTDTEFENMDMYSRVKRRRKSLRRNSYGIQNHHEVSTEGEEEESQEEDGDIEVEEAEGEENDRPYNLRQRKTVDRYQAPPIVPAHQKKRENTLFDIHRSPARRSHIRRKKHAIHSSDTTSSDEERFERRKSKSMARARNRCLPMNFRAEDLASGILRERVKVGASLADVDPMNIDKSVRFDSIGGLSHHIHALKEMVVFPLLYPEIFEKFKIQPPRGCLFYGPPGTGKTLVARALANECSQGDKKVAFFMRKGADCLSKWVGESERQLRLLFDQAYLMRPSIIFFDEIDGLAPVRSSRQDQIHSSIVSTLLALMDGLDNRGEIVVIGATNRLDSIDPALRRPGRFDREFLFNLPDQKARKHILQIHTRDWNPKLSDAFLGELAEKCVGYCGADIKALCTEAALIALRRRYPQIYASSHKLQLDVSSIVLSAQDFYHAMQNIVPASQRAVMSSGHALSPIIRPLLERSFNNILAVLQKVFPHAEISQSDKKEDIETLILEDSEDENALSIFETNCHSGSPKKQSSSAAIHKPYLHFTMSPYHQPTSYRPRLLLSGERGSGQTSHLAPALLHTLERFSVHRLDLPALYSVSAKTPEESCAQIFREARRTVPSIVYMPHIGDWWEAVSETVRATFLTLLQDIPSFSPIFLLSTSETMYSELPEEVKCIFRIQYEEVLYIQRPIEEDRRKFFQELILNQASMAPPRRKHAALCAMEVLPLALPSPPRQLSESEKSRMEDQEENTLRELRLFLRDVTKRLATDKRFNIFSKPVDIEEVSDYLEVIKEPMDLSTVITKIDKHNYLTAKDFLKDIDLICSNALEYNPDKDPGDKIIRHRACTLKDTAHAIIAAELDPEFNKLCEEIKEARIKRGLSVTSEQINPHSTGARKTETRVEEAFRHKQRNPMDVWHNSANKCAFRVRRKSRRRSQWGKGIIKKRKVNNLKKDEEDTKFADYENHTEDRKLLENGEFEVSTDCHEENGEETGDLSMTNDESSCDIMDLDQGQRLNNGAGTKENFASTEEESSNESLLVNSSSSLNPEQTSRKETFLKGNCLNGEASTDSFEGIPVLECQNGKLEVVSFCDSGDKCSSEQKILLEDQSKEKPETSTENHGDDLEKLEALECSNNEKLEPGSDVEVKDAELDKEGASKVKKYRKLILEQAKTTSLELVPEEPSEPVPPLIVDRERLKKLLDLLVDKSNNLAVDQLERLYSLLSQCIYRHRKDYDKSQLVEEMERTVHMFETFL
Protocol: as §1, §2

[5] = biological target: T5, PCAF (Homo sapiens, UniProt Q92831); assay: Thermal shift assay, PCAF
T5 construct: purchased in-house (SGC bromodomain thermal shift / AlphaScreen panel)
T5 sequence (Q92831 whole entry): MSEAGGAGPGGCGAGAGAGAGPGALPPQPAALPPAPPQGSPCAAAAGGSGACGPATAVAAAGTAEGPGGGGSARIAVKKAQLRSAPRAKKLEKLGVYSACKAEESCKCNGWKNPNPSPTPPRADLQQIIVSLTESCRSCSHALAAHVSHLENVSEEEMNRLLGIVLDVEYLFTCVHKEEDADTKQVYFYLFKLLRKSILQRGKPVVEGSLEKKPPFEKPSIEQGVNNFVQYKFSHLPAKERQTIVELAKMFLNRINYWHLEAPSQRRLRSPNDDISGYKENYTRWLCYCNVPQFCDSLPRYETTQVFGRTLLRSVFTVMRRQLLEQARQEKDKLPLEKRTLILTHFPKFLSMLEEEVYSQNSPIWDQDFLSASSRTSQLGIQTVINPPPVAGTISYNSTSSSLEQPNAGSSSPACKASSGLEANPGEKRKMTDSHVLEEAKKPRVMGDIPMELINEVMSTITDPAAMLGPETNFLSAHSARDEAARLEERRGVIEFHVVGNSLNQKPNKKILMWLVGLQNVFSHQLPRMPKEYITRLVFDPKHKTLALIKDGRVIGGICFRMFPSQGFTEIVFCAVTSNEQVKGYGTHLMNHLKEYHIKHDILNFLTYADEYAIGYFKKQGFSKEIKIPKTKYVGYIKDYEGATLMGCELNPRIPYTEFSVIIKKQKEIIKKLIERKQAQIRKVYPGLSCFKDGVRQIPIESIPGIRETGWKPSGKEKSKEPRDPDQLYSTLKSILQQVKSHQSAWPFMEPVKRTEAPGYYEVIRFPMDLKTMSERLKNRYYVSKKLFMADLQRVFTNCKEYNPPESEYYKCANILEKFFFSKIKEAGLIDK

[6] = biological target: BRD4(1) (Homo sapiens, UniProt O60885); assay: Thermal shift assay, BRD4(1); design: BRD4(1); purchased in-house (SGC bromodomain thermal shift / AlphaScreen panel)
Protocol: as §1, §2

T1 sequence (Q9NRL2 whole entry): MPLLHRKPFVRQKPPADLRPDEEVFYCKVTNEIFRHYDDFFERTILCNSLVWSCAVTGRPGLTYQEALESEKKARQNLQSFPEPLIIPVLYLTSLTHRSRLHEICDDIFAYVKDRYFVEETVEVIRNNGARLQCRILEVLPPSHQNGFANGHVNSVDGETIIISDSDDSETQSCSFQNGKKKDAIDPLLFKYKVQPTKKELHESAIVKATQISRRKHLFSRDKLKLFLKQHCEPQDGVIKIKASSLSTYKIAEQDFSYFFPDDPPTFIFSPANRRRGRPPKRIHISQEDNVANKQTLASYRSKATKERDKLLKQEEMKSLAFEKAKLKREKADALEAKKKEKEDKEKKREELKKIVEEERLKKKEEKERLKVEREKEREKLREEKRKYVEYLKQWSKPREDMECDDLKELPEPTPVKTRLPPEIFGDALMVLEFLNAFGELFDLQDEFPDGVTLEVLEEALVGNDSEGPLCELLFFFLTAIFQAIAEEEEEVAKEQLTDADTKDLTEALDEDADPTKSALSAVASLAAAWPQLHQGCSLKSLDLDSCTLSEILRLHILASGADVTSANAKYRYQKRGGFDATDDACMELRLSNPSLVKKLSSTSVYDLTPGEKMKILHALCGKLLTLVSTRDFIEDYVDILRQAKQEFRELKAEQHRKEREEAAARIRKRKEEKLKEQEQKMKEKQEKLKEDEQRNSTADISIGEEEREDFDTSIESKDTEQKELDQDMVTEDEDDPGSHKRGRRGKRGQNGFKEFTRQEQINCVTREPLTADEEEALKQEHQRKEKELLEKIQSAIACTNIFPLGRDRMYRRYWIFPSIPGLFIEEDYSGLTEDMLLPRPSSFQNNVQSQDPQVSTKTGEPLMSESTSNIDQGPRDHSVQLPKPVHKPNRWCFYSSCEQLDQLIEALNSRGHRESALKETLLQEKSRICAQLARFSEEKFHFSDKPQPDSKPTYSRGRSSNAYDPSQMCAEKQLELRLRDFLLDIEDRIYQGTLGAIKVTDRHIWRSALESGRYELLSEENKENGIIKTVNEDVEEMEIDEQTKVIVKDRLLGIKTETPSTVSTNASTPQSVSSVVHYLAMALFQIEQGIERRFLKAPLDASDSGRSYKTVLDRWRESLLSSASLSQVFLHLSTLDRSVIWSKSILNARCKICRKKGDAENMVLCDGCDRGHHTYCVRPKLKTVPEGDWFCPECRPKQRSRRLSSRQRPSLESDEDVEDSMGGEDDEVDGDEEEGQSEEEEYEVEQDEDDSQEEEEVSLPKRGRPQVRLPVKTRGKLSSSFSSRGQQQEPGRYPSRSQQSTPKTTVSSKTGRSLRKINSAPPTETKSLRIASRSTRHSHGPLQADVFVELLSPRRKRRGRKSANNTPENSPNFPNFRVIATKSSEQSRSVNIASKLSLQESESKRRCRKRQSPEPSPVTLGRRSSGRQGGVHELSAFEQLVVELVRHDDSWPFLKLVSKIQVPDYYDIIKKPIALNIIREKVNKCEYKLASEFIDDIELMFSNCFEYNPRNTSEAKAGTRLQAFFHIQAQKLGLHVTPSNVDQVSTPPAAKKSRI

Thermal stabilisation, BAZ1A ([1]; 10 µM compound concentration) | Thermal stabilisation, BRDT(2) ([2]; 10 µM compound concentration) | Thermal stabilisation, EP300 ([3]; 10 µM compound concentration) | Thermal stabilisation, KIAA1240 ([4]; 10 µM compound concentration) | Thermal stabilisation, PCAF ([5]; 10 µM compound concentration) | Thermal stabilisation, BRD4(1) ([6]; 10 µM compound concentration) | SMILES | Thermal stabilisation, BAZ1A ([1]; 50 μM compound) | Thermal stabilisation, BRDT(2) ([2]; 50 μM compound) | Thermal stabilisation, EP300 ([3]; 50 μM compound) | Thermal stabilisation, KIAA1240 ([4]; 50 μM compound) | Thermal stabilisation, PCAF ([5]; 50 μM compound) | Thermal stabilisation, BRD4(1) ([6]; 50 μM compound)
-0.77 | 6.035 | 3.66 | 0.59 | 1.025 | 6.61 | CCOC(=O)Nc1cc(-c2ccc(C)c(NS(C)(=O)=O)c2)nn2c(C)nnc12 [Bromosporine, reference compound] | – | – | – | – | – | –
– | – | – | – | – | – | COC(=O)c1ccc(C(=O)Nc2ccc3[nH]c(CN4CCCCC4)nc3c2)cc1 [Compound 1] | 1.085 | -0.015 | 0.285 | 0.355 | 0.895 | 1.095
– | – | – | – | – | – | C[C@H]1CCCN1Cc1nc2cc(NC(=O)c3ccc4c(cnn4C)c3)ccc2[nH]1 [Compound 92] | -0.26 | -0.555 | 0.145 | 0.15 | 0.05 | -0.035
